Results as given in patent US20200148718A1, “PHARMACEUTICAL-GRADE 20-HYDROXYECDYSONE EXTRACT, USE OF SAME AND PREPARATION THEREOF” (BIOPHYTIS, priority 2017, published 2020).

Assays:
[1] = Phase I clinical trial, single administrations (SAD), plasma pharmacokinetics; type: in vivo, humans; conditions: SAD cohorts, FIG. 3
Protocol: In the context of a phase I clinical trial, the plasma concentrations of BIO101 were measured after single administrations (SAD) of 100, 350, 700 and 1400 mg/day in individuals on an empty stomach. Repeated administrations (MAD) over 14 days were then carried out with a single daily dose of 350 mg or with two daily doses (morning and evening) of 350 mg and 450 mg. These administrations of BIO101 to various cohorts of volunteers (n=6) allowed to determine the main pharmacokinetic parameters of BIO101: Cmax (maximum plasma concentration of BIO101 after single or repeated), Cmin (minimum plasma concentration of BIO101 after single or repeated administration), Tmax (time necessary to reach the maximum plasma concentration of BIO101 after single or repeated administration), and AUC (Area under curve) synonymous with level of plasma exposure.
The average profile of the cohorts of the SAD is presented in FIG. 3 in which Y are young volunteers and O are volunteers, the age of which is between 65 and 85 years. […] The half-life of the 20E is approximately 3-4 hours.

[2] = pure molecule, data of the literature; cited from earlier work
[3] = system: nuclear receptors of the androgens or of the oestrogens; conditions: Lapenna et al., 2015; cited from earlier work
[4] = Bioavailability with respect to 20E; conditions: relative to 20E

With CC(C)(O)CC[C@@H](O)[C@](C)(O)[C@H]1CC[C@@]2(O)C3=CC(=O)[C@@H]4C[C@@H](O)[C@@H](O)C[C@]4(C)[C@H]3CC[C@]12C [20E, 20-hydroxyecdysone] the Bioavailability [1] was “low bioavailability”, the “Elimination of the active ingredient from plasma” value [1] was “almost totally disappears after 24 hours” and the Half-life [1] was 3 to 4 h. The Cytotoxicity [2] was “slightly cytotoxic”.

For CC12CC(O)C(O)CC1C(=O)C=C1C2CCC2(C)C(O)CCC12O (centres unmarked) [dihydrorubrosterone, Dihydrorubrosterone], the “Interaction with nuclear receptors of the androgens or of the oestrogens” value (from here on “Interaction with nuclear receptors”) [3] is given as “capable of interacting”.

In the case of CC(=O)[C@H]1CC[C@@]2(O)C3=CC(=O)[C@@H]4C[C@@H](O)[C@@H](O)C[C@]4(C)[C@H]3CC[C@]12C [poststerone, Poststerone], the “Bioavailability with respect to 20E” value [4] is given as “approximately twenty times better” and the “Interaction with nuclear receptors” value [3] is given as “capable of interacting”.

For C[C@]12C[C@H](O)[C@H](O)C[C@H]1C(=O)C=C1[C@@H]2CC[C@]2(C)C(=O)CC[C@@]12O [rubrosterone, Rubrosterone], the “Interaction with nuclear receptors” value [3] is listed as “capable of interacting”.
